{"source": "patent US20150335678A1", "about": "“METHOD OF ACTIVATING STEM CELLS IN AN ANIMAL AND THE USE OF CHLORINE DIOXIDE FOR PREPARING MEDICINES FOR ACTIVATING STEM CELLS IN AN ANIMAL” (priority 2012, published 2015)", "key": {"[1]": {"system": "GFAP-positive cells (astrocytes), NeuN-positive cells (immature neurons)", "test": "NeuN-positive, GFAP-positive and BrdU-positive/GFAP-positive cells in the SVZ region", "assay_type": "in vivo, Sprague-Dawley rats", "procedure": "Male Sprague-Dawley rats with the age of 12 weeks and weight of 250^˜280 g were used in the experiment after acclimating for a week.\nA middle cerebral artery occlusion model was first established in compliance with the method of Longa E Z et al. (Longa E Z, et al. Reversible middle cerebral artery occlusion without craniectomy in rats. Stroke 20:84-91, 1989). More specifically, 0.36 g/kg of 10% chloral hydrate was administered intraperitoneally to rats which had been fasted for 12 hours (although given free access to water) to anesthetize the rats. Next, a midline incision was made in the neck to expose the right common carotid artery. Then, the internal carotid artery and external carotid artery were separated, the posterior carotid artery, which is a branch of the external carotid artery, and the thyroidea arteria were coagulated and severed, the external carotid artery was ligated at the branch of the lingual artery and maxillary artery, a small puncture was formed in the external carotid artery, 4-0 Nylon suture was passed through the common carotid artery from the puncture, and gradually inserted into the internal carotid artery until there was resistance. The length of the Nylon suture was about 18^˜20 mm from the branch of the common carotid artery. As a result of occluding the middle cerebral artery with Nylon suture, an ischemic state was applied for 2 hours to create a middle cerebral artery occlusion model.\nA cerebral ischemia/reperfusion injury model was established by removing the Nylon suture from the middle cerebral artery of the occlusion model and following reperfusion of blood.\nThe first solution was a mixed solution made of sodium chlorite with the concentration of 7.47% and sodium chloride with the concentration of 1.59% with deionized water; the second solution was made of citric acid with the concentration of 16.7% with deionized water. Same volume of solutions were taken out from different vessels with different volumes and mixed up. Allow the solution to mix for 3-5 minutes and dilute it five times with normal saline, and then filter it with 0.22 μm filter membrane of double-deck. The solution was immediately put into injector. The solution was prepared once being used.\nTreatment group (120 rats): A cerebral ischemia/reperfusion injury model was established for the rats already. To administer chlorine dioxide solution everytime that prepared from procedure (3) through carotid artery after the second day the model has established, once a day for total ten days.\nOn day 5, 6, 12, 13, 19 and 20 after the model established, 50 mg/kg BrdU was injected intraperitoneally into 30 rats in each group. The rats were autopsied on day 7, 14 and 21 after the model established for preparation of frozen brain sections. The presences of NeuN-positive cells by immunochemical stain, glial fibrillory acidic protein (GFAP)-positive cells by immunochemical stain, and BrdU-Positive/GFAP Positive Cells by double-immunofluorescent stain in the SVZ region were analyzed. NeuN is a marker expressed on the immature neurons which are differentiated from neural stem cells. GFAP is a marker expressed on astrocytes which are also differentiated from neural stem cells.\nThe presence of NeuN-positive cells was analyzed using goat anti-NeuN monoclonal antibody. The presence of GFAP-positive cells was analyzed using goat anti-GFAP polyclonal antibody. The presence of BrdU-positive/GFAP-positive cells was analyzed by double-immunofluorescent stain using a combination of primary antibody of mouse anti-rat BrdU monoclonal antibody and secondary antibody of Rho-labeled rabbit anti-mouse antibody, and a combination of primary antibody of goat anti-GFAP polyclonal antibody and secondary antibody of FITC-labeled rabbit anti-goat antibody.\nBRt(%)=(Bt−St)/(Mt−St)×100"}, "[2]": {"system": "cartilage of hip joint", "test": "Hip arthritis patients: thickness of cartilage of hip joint by ultrasonic scanning", "assay_type": "in vivo, human", "conditions": "listed as activating agent of stem cells comprising a chlorine dioxide; for Medical cartilage thickness mean(±SD): before administration 0.51 (±0.07); for Lateral cartilage thickness mean(±SD): before administration 0.61 (±0.09)", "procedure": "To smear the solution over the skin of hip arthritis with swab immediately, once a day for consecutive 20 days. Then stop the administration for three months, and then began continuous treatment for 20 days. Clean and disinfect the regions before treatment, conduct local anesthetic 30 minutes before the operation.\nThe subjects who joined in the treatment group as volunteers consisted of 11 patients with hip arthritis (5 male, aged from 40 to 70 years old and 6 female, aged from 40 to 65 years old.). Case histories were recorded at the third and the sixth month by collecting personal and data of human body (height, body weight, BMI, blood pressure and heart rate.) Then evaluate the following parameters:\nThickness of cartilage of hip joint: measured by ultrasonic scanning at the core, the center and the lateral."}, "[3]": {"system": "Ankylosing spondylitis", "test": "Ankylosing spondylitis patients: BASRI, Harris hip score, BASDAI, BASFI, ESR, CRP (Example 6)", "conditions": "for BASDAI: before treatment 6.4 ± 1.8; for BASFI: before treatment 7.3 ± 1.6; for CRP: before treatment 17.6 ± 4.2; for ESR: before treatment 29.4 ± 9.8; for BASRI Staging: before treatment 45 ± 5; for Harris hip score: before treatment 82 ± 6", "procedure": "The first solution was a mixed solution made of sodium chlorite with the concentration of 7.47% and sodium chloride with the concentration of 1.59% with deionized water; the second solution was made of citric acid with the concentration of 16.7% with deionized water. Same volume of solutions were taken out from different vessels with different volume and put into the suitable glass or plastic cups prepared. Allow the solution to mix for 3-5 minutes and then filter the solution with 0.22 μm filter membrane of double-deck, dimethyl sulfoxide was added in the ratio of 1:1. The solution was smeared over the region immediately and repeatedly, once a day for consecutive three weeks. The administration was stopped for a week, and then began the treatment for consecutive three weeks, stop the drug for a week. The medicine was repeated for four cycles. Clean and disinfect the area before administration and conduct local anesthetic 30 minutes before operation. To use corresponding amount of solution according to different regions, varying from 1-10 ml/100 cm^2.\nThe subjects consisted of 8 male and 4 female AS patients aged from 18 to 40 years old (average age: 26 years old).\nMean index: the index of X ray of the hip joints:\nStage I: suspicious change, local joint space may become narrower, 25 points;\nStage II: mildly abnormal, joint space becomes narrower obviously, the space>2 mm, 50 points;\nStage III: moderately abnormal, joint space becomes narrow, and the space <2 mm or the local joint space disappears, articular surfaces <2 mm, 75 points;\nStage IV: severe abnormal, bone deformation, articular surfaces >2 cm, 100 points.\nIf two of the three symptoms, namely, erosion and damage, syndesmophyte formation, arthrokatadysis appear during stage I and II, it should increase a level accordingly. BASRI evaluation was given according to different levels. Harris score: full score is 100 points, including pain degree of hip joints (44 points), function of hip joints (47 points), degree of lower limb malformation (4 points), range of activity of hip joints (5 points). Corresponding scores were given according to degrees. BASFI, BASDAI, ESR, CRP were applied in evaluating disease activity and function."}, "[4]": {"conditions": "12 AS patients, topical with DMSO"}, "[5]": {"conditions": "the sixth month, 12 AS patients, topical with DMSO"}, "[6]": {"conditions": "the third month, 12 AS patients, topical with DMSO"}}, "data": [{"smiles": "[O][Cl+][O-]", "note": "[chlorine dioxide solution, chlorine dioxide]", "values": [{"measurement": "BRt: GFAP-positive cells in treatment group relative to model group = 100%", "setting": "[1]; Day 7", "result": 148.4, "unit": "%"}, {"measurement": "number of GFAP-positive cells in the SVZ (mean±SD)", "setting": "[1]; Day 7, model group 66.3 ± 21.3, sham 2.5 ± 0.15, diluted solution via carotid artery once a day, ten days", "result": "97.2 ± 29.3 No. of cells/mm2"}, {"measurement": "BRt: GFAP-positive cells in treatment group relative to model group = 100%", "setting": "[1]; Day 14", "result": 134.3, "unit": "%"}, {"measurement": "number of GFAP-positive cells in the SVZ (mean±SD)", "setting": "[1]; Day 14, model group 58.6 ± 16.5, sham 1.39 ± 0.02", "result": "78.2 ± 19.6 No. of cells/mm2"}, {"measurement": "BRt: GFAP-positive cells in treatment group relative to model group = 100%", "setting": "[1]; Day 21", "result": 162.4, "unit": "%"}, {"measurement": "number of GFAP-positive cells in the SVZ (mean±SD)", "setting": "[1]; Day 21, model group 27.9 ± 12.4, sham 0", "result": "45.3 ± 18.3 No. of cells/mm2"}, {"measurement": "presence of NeuN-positive cells (immature neurons)", "setting": "[1]; treatment group, data not shown", "result": "confirmed"}, {"measurement": "presence of BrdU-positive/GFAP-positive cells in the SVZ region", "setting": "[1]; treatment group, double-immunofluorescent stain, data not shown", "result": "confirmed"}, {"measurement": "Medical cartilage thickness mean(±SD)", "setting": "[2]; sixth month", "result": "0.66 (±0.16) mm"}, {"measurement": "Lateral cartilage thickness mean(±SD)", "setting": "[2]; sixth month", "result": "0.73 (±0.11) mm"}, {"measurement": "Central cartilage thickness mean (±SD)", "setting": "[2]; sixth month, before administration 0.73 (±0.09)", "result": "0.89 (±0.09) mm"}, {"measurement": "Central cartilage thickness, percentage increase", "setting": "[2]; sixth month", "result": 12.7, "unit": "%"}, {"measurement": "Lateral cartilage thickness, percentage increase", "setting": "[2]; sixth month", "result": 8.9, "unit": "%"}, {"measurement": "Medical cartilage thickness, percentage increase", "setting": "[2]; sixth month", "result": 11.9, "unit": "%"}, {"measurement": "Medical cartilage thickness mean(±SD)", "setting": "[2]; third month, ultrasound, 11 hip arthritis patients, topical with DMSO", "result": "0.59 (±0.08) mm"}, {"measurement": "Lateral cartilage thickness mean(±SD)", "setting": "[2]; third month", "result": "0.67 (±0.10) mm"}, {"measurement": "Central cartilage thickness, percentage increase", "setting": "[2]; third month", "result": 8.2, "unit": "%"}, {"measurement": "Lateral cartilage thickness, percentage increase", "setting": "[2]; third month", "result": 9.8, "unit": "%"}, {"measurement": "Medical cartilage thickness, percentage increase", "setting": "[2]; third month", "result": 15.6, "unit": "%"}, {"measurement": "time until pain and itch during administration disappear completely", "setting": "[3]; [4]", "result": "after an hour"}, {"measurement": "tolerance", "setting": "[3]; [4]", "result": "without local or systemic anaphylactic reaction"}, {"measurement": "change of BASRI staging of the involved hip joints vs before administration", "setting": "[3]; six months after administration", "result": "reduced a level"}, {"measurement": "BASDAI", "setting": "[3]; [5]", "result": "3.0 ± 1.2"}, {"measurement": "BASFI", "setting": "[3]; [5]", "result": "2.9 ± 1.1"}, {"measurement": "CRP", "setting": "[3]; [5]", "result": "1.2 ± 0.6"}, {"measurement": "ESR", "setting": "[3]; [5]", "result": "9.1 ± 6.8"}, {"measurement": "BASRI Staging", "setting": "[3]; [5]", "result": "25 ± 8"}, {"measurement": "Harris hip score", "setting": "[3]; [5]", "result": "32 ± 4"}, {"measurement": "BASDAI", "setting": "[3]; [6]", "result": "3.6 ± 1.5"}, {"measurement": "BASFI", "setting": "[3]; [6]", "result": "3.3 ± 1.4"}, {"measurement": "CRP", "setting": "[3]; [6]", "result": "6.3 ± 3.5"}, {"measurement": "ESR", "setting": "[3]; [6]", "result": "11.8 ± 7.6"}, {"measurement": "BASRI Staging", "setting": "[3]; the third month, 12 AS patients, NaClO2 7.47% + citric acid 16.7% 1:1, DMSO 1:1, smeared once a day, three weeks on/one week off, four cycles", "result": "30 ± 6"}, {"measurement": "Harris hip score", "setting": "[3]; [6]", "result": "49 ± 5"}, {"measurement": "change of BASRI staging of the involved hip joints vs before administration", "setting": "[3]; three months after administration", "result": "reduced half level"}]}]}
